{"source": "patent US6716411B2", "about": "“Method for finding nucleotide synthesis inhibitors having fewer side effects” (Aventis Pharma Deustschland GmbH, priority 1999, dated 2004)", "system": "pemphigus vulgaris", "experiment": "Observation of leflunomide treatment in humans", "assay_type": "in vivo", "conditions": "one patient", "experimental": "This diarrhea adversely affected the quality of life of the patient. Because of the problems caused by this side effect, an attempt was made, after more than two years' therapy with a constant dose of 20 mg of leflunomide per day, to end the therapy.\nThis observation was surprising, as the active metabolite of leflunomide, compound 1, has a half-life of approximately 14 days in humans. Furthermore, in this patient the blood levels of the active metabolite of leflunomide were repeatedly determined in the relatively high range between 70 mg/l and 85 mg/l.", "data": [{"smiles": "Cc1oncc1C(=O)Nc1ccc(C(F)(F)F)cc1", "note": "[leflunomide, N-(4-trifluoromethylphenyl)-5-methylisoxazole-4-carboxamide]", "values": [{"measurement": "side effect of treatment", "setting": "20 mg of leflunomide per day", "value": "permanent diarrhea"}, {"measurement": "symptoms of pemphigus vulgaris under therapy", "setting": "20 mg of leflunomide per day", "value": "completely disappeared"}, {"measurement": "pemphigus vulgaris four days following discontinuation", "setting": "after more than two years' therapy", "value": "occurred again severely"}]}]}
